Laboratory results published in patent US9187438B2, “Derivatives of benzothiazines, preparation thereof and application thereof as drugs” (PIERRE FABRE MEDICAMENT, priority 2009, dated 2015).

What was measured:
Format in all cases: biochemical
11β-HSD1 [1] = target: T1, 11β-HSD1 (Homo sapiens, UniProt P28845); test: Human enzymatic activity of 11β-HSD1 from liver microsomes, cortisone to cortisol conversion, HTRF detection (inhibition %); conditions: 10^−6M inhibitor, read-out: 11β-HSD1/HTRF % inhib. (10^−6M)
T1 construct: adding 1 μg of human hepatic microsome (Xenotech); tissue Xenotech; host or cells: human liver microsomes
Description: 1) Human Enzymatic Activity of 11β-HSD1 from Liver Microsomes after Treatment with Inhibitor Compounds (Inhibition %).
The enzymatic test is based on the conversion of cortisone into cortisol by 11β-HSD1. […] A calibration curve of known cortisol concentrations is produced simultaneously under the same experimental conditions. The plates are incubated for 2 hours at 37° C. (enzymatic phase). By adding 25 μL of conjugate cortisol-d2 and of 25 μL of anti-cortisol anαtibody labeled with Eu^3+ cryptate per well, the enzymatic reaction may be stopped and after incubation of 2 hours at room temperature the formed cortisol (detection phase) may be quantified by HTRF® (CIS bio international, reference 62CO2PEC). The fluorescence measurements are conducted with a Fusion™ α(Perkin Elmer) reader. For each well, fluorescence is measured at 620 nm and at 665 nm. A ratio (λ665 nm/λ620 nm) and a specific FRET signal are calculated, with which an inhibition percentage may be determined for each concentration of evaluated inhibitor compound.

11β-HSD1 [2] = target: T1, 11β-HSD1; test: Human enzymatic activity of 11β-HSD1 from liver microsomes, [3H]cortisone to [3H]cortisol conversion, SPA (inhibition % or EC50); conditions: for inhibition at 1 µM: 10^−6M inhibitor, read-out: 11β-HSD1/SPA % inhib. (10^−6M)
Description: The enzymatic test is based on the conversion of [^3H] cortisone into [^3H] cortisol by 11β-HSD1. […] The sealed plates are centrifuged at low speed for mixing the components and then incubated for 2 hours at 37° C. (enzymatic phase). The enzymatic reaction is stopped by adding 70 μl/well of complex [10 mg/mL of yttrium silicate SPA beads associated with the protein A (GE Healthcare) and pre-incubated with an anti-cortisol monoclonal antibody (East Coast Biologics, ME)] containing 10 μM of 18β-glycerrhitinic acid. The plates are sealed and then incubated under slow orbital stirring for 2 hours at room temperature (detection phase).

11β-HSD2 = target: T2, 11β-HSD2 (Homo sapiens, UniProt P80365); test: Human enzymatic activity of 11β-HSD2 from kidney microsomes, [3H]cortisol to [3H]cortisone conversion, SPA (inhibition %); conditions: 10^−5M inhibitor, read-out: 11β-HSD2/SPA % inhib. (10^−5M)
T2 construct: of human kidney microsomes (Xenotech); tissue Xenotech; host or cells: human kidney microsomes
T2 sequence (P80365 1-405): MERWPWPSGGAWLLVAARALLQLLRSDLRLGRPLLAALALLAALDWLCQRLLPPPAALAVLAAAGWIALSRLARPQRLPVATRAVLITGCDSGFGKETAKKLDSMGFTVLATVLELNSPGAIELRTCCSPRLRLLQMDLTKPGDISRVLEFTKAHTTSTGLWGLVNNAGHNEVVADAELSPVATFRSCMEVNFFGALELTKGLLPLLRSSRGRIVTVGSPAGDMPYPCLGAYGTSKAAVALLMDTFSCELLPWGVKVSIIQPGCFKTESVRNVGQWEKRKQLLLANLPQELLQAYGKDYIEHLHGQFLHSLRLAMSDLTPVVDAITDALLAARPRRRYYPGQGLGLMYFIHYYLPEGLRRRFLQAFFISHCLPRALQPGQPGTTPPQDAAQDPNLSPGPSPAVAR
Description: 3) Human Enzymatic Activity of 11β-HSD2 from Kidney Microsomes after Treatment with the Inhibitor Compounds (Inhibition %).
The enzymatic test is based on the conversion of [^3H] cortisol into [^3H] cortisone by 11β-HSD2. The enzymatic reaction is started by adding 0.75 μg (standardization of this amount in order to obtain 80% of the conversion maximum of the substrate under the experimental conditions) of human kidney microsomes (Xenotech) to wells (Optiplate™ 96-well plates, a reaction volume of 50 μL) containing 8 nM [1,2,6,7-^3H] cortisol (specific activity of 70-75 Ci/mmol, Amersham-GE Healthcare) in a 50 mM HEPES buffer (pH 7.4) with 100 mM KCl, 5 mM NaCl, 2 mM MgCl2, 1 mM NAD^+ and the inhibitor compound or the carrier (1% DMSO). The sealed plates are centrifuged at low speed in order to mix the components and then incubated for 2 hours at 37° C. (enzymatic phase). The enzymatic reaction is stopped by adding 70 μl/well of complex [10 mg/mL of yttrium silicate SPA beads associated with protein A (GE Healthcare) and pre-incubated with an anti-cortisol monoclonal antibody (East Coast Biologics, ME)] containing 10 μM of 18β-glycerrhitinic acid. The plates are sealed and then incubated under slow orbital stirring for 2 hours at room temperature (detection phase). After centrifugation, the measurements are conducted with a scintillation counter TopCount NXT (Perkin Elmer). An inhibition percentage for each evaluated compound concentration is calculated relatively to the standard enzymatic activity (carrier 1% DMSO).

T1 sequence (P28845 whole entry): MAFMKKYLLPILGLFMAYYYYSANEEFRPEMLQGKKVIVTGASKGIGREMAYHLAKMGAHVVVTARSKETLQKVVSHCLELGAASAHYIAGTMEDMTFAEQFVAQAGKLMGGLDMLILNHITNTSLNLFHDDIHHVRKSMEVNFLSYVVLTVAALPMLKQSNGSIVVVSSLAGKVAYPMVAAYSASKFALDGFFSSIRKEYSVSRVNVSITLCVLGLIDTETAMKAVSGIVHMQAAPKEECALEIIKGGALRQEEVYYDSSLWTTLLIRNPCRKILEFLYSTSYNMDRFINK

Row | SMILES | inhibition at 1 µM (11β-HSD1 [1]) | EC50 (11β-HSD1 [2]) | inhibition at 1 µM (11β-HSD1 [2]) | inhibition at 10 µM (11β-HSD2)
1 | Cc1ccc(C(=O)C2=C(O)c3ccccc3S(=O)(=O)N2C)cc1 [Example 3, (4-hydroxy-2-methyl-2H-1,1-dioxo-benzo[e][1,2]thiazin-3-yl) (4-methylphenyl)methanone] | 99% | 64 nM | 93% | 33%
2 | CCN1C(C(=O)c2ccc3ccccc3c2)=C(O)c2ccccc2S1(=O)=O [Example 9, (4-hydroxy-2-ethyl-1,1-dioxo-2H-benzo[e][1,2]thiazin-3-yl)(naphthalen-2-yl)methanone] | 98% | 60 nM | 88% | 5%
3 | CCN1C(C(=O)c2ccc3ccccc3c2)=C(O)c2ccc(F)cc2S1(=O)=O [Example 18, (7-Fluoro-4-hydroxy-2-ethyl-1,1-dioxo-2H-benzo[e][1,2]thiazin-3-yl)(naphthalen-2-yl)methanone] | 100% | 69 nM | 91% | 25%
4 | CN1C(C(=O)c2ccc3ccccc3c2)=C(OC(=O)COc2ccccc2)c2ccccc2S1(=O)=O [Example 54, Phenoxyacetic acid 2-methyl-3-(naphthalene-2-ylcarbonyl)-1,1-dioxo-2H-benzo[e][1,2]thiazin-4-yl ester] | 100% | 27 nM | 97% | 71%
5 | CN1C(C(=O)c2cccc(Br)c2)=C(O)c2ccccc2S1(=O)=O [Example 142, (3-Bromo-phenyl)-(4-hydroxy-2-methyl-1,1-dioxo-1,2-dihydro-2H-benzo[e][1,2]thiazin-3-yl)-methanone] | 100% | 21 nM | 87% | 

The remaining molecules from weak to strong by EC50 (11β-HSD1 [2]), led by results:

Row | inhibition at 1 µM (11β-HSD1 [1]) | EC50 (11β-HSD1 [2]) | inhibition at 1 µM (11β-HSD1 [2]) | inhibition at 10 µM (11β-HSD2) | SMILES
6 | 100% | 72 nM | 91% | 63% | CC(=O)OC1=C(C(=O)c2ccc3ccccc3c2)N(C)S(=O)(=O)c2ccccc21 [Example 46, Acetic acid 2-methyl-3-(naphthalene-2-carbonyl)-1,1-dioxo-2H-benzo[e][1,2]thiazin-4-yl ester]
7 | 100% | 43 nM | 93% | 31% | CN1C(C(=O)c2ccc(Cl)c(Cl)c2)=C(O)c2ccccc2S1(=O)=O [Example 123, (4-hydroxy-2-methyl-1,1-dioxo-2H-benzo[e][1,2]thiazin-3-yl) (3,4-dichlorophenyl)methanone]
8 | 99% | 16 nM | 97% | 42% | CN1C(C(=O)c2ccc3ccccc3c2)=C(O)c2ccccc2S1(=O)=O [Example 1, (4-Hydroxy-2-methyl-1,1-dioxo-2H-benzo[e][1,2]thiazin-3-yl)(naphthalen-2-yl)methanone]
9 | 100% | 11 nM | 99% | 61% | CN1C(C(=O)c2ccc3ccccc3c2)=C(O)c2ccc(F)cc2S1(=O)=O [Example 17, (7-Fluoro-4-hydroxy-2-methyl-1,1-dioxo-2H-benzo[e][1,2]thiazin-3-yl)(naphthalen-2-yl)methanone]
